Test results: patent US4363922A, “Esters of antibiotic nodusmicin” (priority 1981, dated 1982)
In brackets after ≈: the same amount, converted by molar mass. Read-outs that look alike come from different tables or passages of the source.

Legend:
[1] = system: S.lutea UC-130; assay: Dipped disc agar diffusion assay, S. lutea; details: for zone of inhibition at 1000 µg/mL: Micrococcus luteus, UC130, 16 h
[2] = system: S.aureus UC-570; assay: Minimum Inhibitory Concentration, microplate broth-dilution, S. aureus UC-570; details: for MIC: Staphylococcus aureus
[3] = system: S.aureus UC-76; assay: Minimum Inhibitory Concentration, microplate broth-dilution, S. aureus UC-76; details: for MIC S.aureus UC-76: BHI broth; for MIC: Staphylococcus aureus
[4] = system: S.pyrogenes UC-152; assay: Minimum Inhibitory Concentration, microplate broth-dilution, S. pyrogenes UC-152; details: for MIC S.pyrogenes UC-152: BHI broth
[5] = system: S.aureus UC-746; assay: Minimum Inhibitory Concentration, microplate broth-dilution, S. aureus UC-746; details: for MIC: Staphylococcus aureus
[6] = system: S.aureus UC 80; assay: Dipped disc agar diffusion assay, S. aureus; details: for zone of inhibition at 1000 µg/mL: Staphylococcus aureus, UC80, 16 h
[7] = Solubility noted in the MIC determination; details: BHI broth
[8] = system: K. pneumoniae; assay: Antibiotic activity against K. pneumoniae; format: cell-based
[9] = system: B. fragilis; assay: Antibiotic activity against B. fragilis; format: cell-based
[10] = system: S. lutea; assay: Antibiotic activity against S. lutea; format: cell-based
[11] = system: Mycobacterium avium; assay: Antibiotic activity against Mycobacterium avium; format: cell-based
[12] = system: C. perfringens; format: cell-based
[13] = read-out: Agar Diffusion 1 mg./ml. S.lutea UC-130 (inhibition zone)
[14] = read-out: zone of inhibition, S. lutea
[15] = UC76, read-out: MIC S.aureus UC-76, BHI broth, sensitive strain
[16] = read-out: MIC S.pyrogenes UC-152, BHI broth
[17] = read-out: Agar Diffusion 1 mg./ml. S.aureus UC 80 (inhibition zone), 1 mg./ml., 12.7 mm paper disc, 16 hours
[18] = UC570, read-out: MIC S.aureus UC-570, BHI broth, sensitive strain
[19] = UC746, read-out: MIC S.aureus UC-746, BHI broth, strain resistant to tetracycline
[20] = UC570, read-out: MIC S.aureus UC-570
[21] = UC76, read-out: MIC S.aureus UC-76
[22] = read-out: MIC S.pyrogenes UC-152
[23] = UC746, read-out: MIC S.aureus UC-746
[24] = read-out: Agar Diffusion 1 mg./ml. S.aureus UC 80 (inhibition zone)

Molecule | zone of inhibition at 1000 µg/mL [1, 13] | MIC [4, 16] | MIC [2, 20] | MIC [3, 21] | MIC [4, 22] | MIC [5, 23] | also measured
9-O--3-Furoyl- [U-61,461] | – | – | – | – | – | – | Agar Diffusion 1 mg./ml. S.lutea UC-130 (inhibition zone) ([1]; 1 mg./ml., 12.7 mm paper disc, 16 hours): 41; MIC S.aureus UC-570 ([2]; BHI broth, sensitive strain): 0.25 µg/mL; MIC S.aureus UC-76 ([3]; sensitive strain): 0.50 µg/mL; MIC S.pyrogenes UC-152 [4]: 2.50 µg/mL; MIC S.aureus UC-746 ([5]; BHI broth, strain resistant to tetracycline): 0.50 µg/mL; Agar Diffusion 1 mg./ml. S.aureus UC 80 (inhibition zone) ([6]; 12.7 mm paper disc, 16 hours): 35
COC1CC2C=CC3C4OC2(C(C)=CC(C)C(C(C)O)OC1=O)C3C(O)C(C)C4OC(=O)c1ccccc1 (stereo not shown) [9-O--benzoyl-, 9-O-benzoyl-nodusmicin] | 30 mm | – | – | – | – | – | zone of inhibition at 1000 µg/mL [1, 14]: 30 mm; insoluble [7]: insoluble
COC1CC2C=CC3C4OC2(C(C)=CC(C)C(C(C)OC(=O)c2ccccc2)OC1=O)C3C(O)C(C)C4O (stereo not shown) [18-O--benzoyl-, 18-O-benzoyl-nodusmicin] | – | – | – | – | – | – | insoluble [7]: insoluble
COC1CC2C=CC3C4OC2(C(C)=CC(C)C(C(C)O)OC1=O)C3C(O)C(C)C4OC(=O)c1ccc[nH]1 (stereo not shown) [U-59,760, 9-O-pyrrole-2-carbonyl ester of nodusmicin, reference compound] | 44 mm | > 125 µg/mL | – | – | – | – | MIC S.aureus UC-76 ([3]; sensitive strain): 0.125 µg/mL (≈ 0.242 µM); MIC [3, 15]: 0.0625 µg/mL (≈ 0.121 µM); MIC S.pyrogenes UC-152 [4]: 62.5 µg/mL (≈ 121 µM); Agar Diffusion 1 mg./ml. S.aureus UC 80 (inhibition zone) ([6]; 12.7 mm paper disc, 16 hours): 38; zone of inhibition at 1000 µg/mL [6, 17]: 37 mm
COC1CC2C=CC3C4OC2(C(C)=CC(C)C(C(C)O)OC1=O)C3C(O)C(C)C4O (stereo not shown) [U-59,761, nodusmicin] | 40 mm | 500 µg/mL (≈ 1180 µM) | – | – | – | – | activity against K. pneumoniae [8]: active; MIC [2, 18]: 250 µg/mL (≈ 592 µM); activity against B. fragilis [9]: active; MIC [3, 15]: 125 µg/mL (≈ 296 µM); activity against S. lutea [10]: active; MIC [5, 19]: 250 µg/mL (≈ 592 µM); activity against Mycobacterium avium [11]: active; activity against C. perfringens [12]: active
COC1CC2C=CC3C4OC2(C(C)=CC(C)C(C(C)O)OC1=O)C3C(O)C(C)C4OC(=O)c1ccco1 (stereo not shown) [U-60,898, 9-O--Furoyl-] | 40 mm | – | 7.8 µg/mL (≈ 15.1 µM) | 7.8 µg/mL (≈ 15.1 µM) | > 250 µg/mL | 7.8 µg/mL (≈ 15.1 µM) | zone of inhibition at 1000 µg/mL [6, 24]: 30 mm
COC1CC2C=CC3C4OC2(C(C)=CC(C)C(C(C)O)OC1=O)C3C(OC(=O)c1ccco1)C(C)C4O (stereo not shown) [U-60,905, 11-O--Furoyl-] | 17 mm | – | 500 µg/mL (≈ 968 µM) | 500 µg/mL (≈ 968 µM) | > 500 µg/mL | 500 µg/mL (≈ 968 µM) | –
COC1CC2C=CC3C4OC2(C(C)=CC(C)C(C(C)O)OC1=O)C3C(O)C(C)C4OC(=O)c1cccnc1 (stereo not shown) [U-60,906, 9-O--Nicotinoyl-] | 32 mm | – | 250 µg/mL (≈ 474 µM) | 250 µg/mL (≈ 474 µM) | 2500 µg/mL (≈ 4740 µM) | 250 µg/mL (≈ 474 µM) | –
COC1CC2C=CC3C4OC2(C(C)=CC(C)C(C(C)OC(=O)c2ccc[nH]2)OC1=O)C3C(O)C(C)C4O (stereo not shown) [U-60,907, 18-O--Pyrrole-2-carbonyl] | 33 mm | > 250 µg/mL | – | – | – | – | MIC [2, 18]: 3.9 µg/mL (≈ 7.56 µM); MIC [3, 15]: 7.8 µg/mL (≈ 15.1 µM); MIC [5, 19]: 15.6 µg/mL (≈ 30.3 µM); zone of inhibition at 1000 µg/mL [6, 17]: 27 mm
COC1CC2C=CC3C4OC2(C(C)=CC(C)C(C(C)OC(=O)c2ccc[nH]2)OC1=O)C3C(O)C(C)C4OC(=O)c1ccc[nH]1 (stereo not shown) [U-60,908, 9,18-O--Dipyrrole-2-carbonyl-] | 29 mm | – | – | – | – | – | insoluble [7]: insoluble; zone of inhibition at 1000 µg/mL [6, 17]: 24 mm
COC1CC2C=CC3C4OC2(C(C)=CC(C)C(C(C)O)OC1=O)C3C(O)C(C)C4OC(=O)c1ccccn1 (stereo not shown) [U-60,909, 9-O--Picolinoyl-] | 31 mm | – | > 250 µg/mL | > 250 µg/mL | > 250 µg/mL | > 250 µg/mL | –
COC1CC2C=CC3C4OC2(C(C)=CC(C)C(C(C)O)OC1=O)C3C(O)C(C)C4OC(=O)c1ccsc1 (stereo not shown) [U-60,910, 9-O-Thiophene-3-carbonyl-nodusmicin] | 40 mm | 125 µg/mL (≈ 235 µM) | 0.25 µg/mL (≈ 0.469 µM) | 0.5 µg/mL (≈ 0.939 µM) | – | 0.5 µg/mL (≈ 0.939 µM) | zone of inhibition at 1000 µg/mL [1, 14]: 40 mm; zone of inhibition at 1000 µg/mL [6, 17]: 35 mm; zone of inhibition at 1000 µg/mL ([6]; read-out: zone of inhibition, S. aureus, 1 mg./ml., 0.5 inch disc, agar tray, strain not stated): 35 mm
COC1CC2C=CC3C4OC2(C(C)=CC(C)C(C(C)O)OC1=O)C3C(O)C(C)C4OC(=O)c1ccncc1 (stereo not shown) [U-60,925, 9-O--Isonicotinoyl] | 38 mm | – | 250 µg/mL (≈ 474 µM) | 250 µg/mL (≈ 474 µM) | > 250 µg/mL | 250 µg/mL (≈ 474 µM) | –
COC1CC2C=CC3C4OC2(C(C)=CC(C)C(C(C)O)OC1=O)C3C(O)C(C)C4OC(=O)[C@@H]1CCCN1 (stereo partly drawn) [U-60,933, 9-O--L-Pyrolyl-] | 38 mm | – | 62.5 µg/mL (≈ 120 µM) | 31.2 µg/mL (≈ 60 µM) | > 250 µg/mL | 62.5 µg/mL (≈ 120 µM) | zone of inhibition at 1000 µg/mL [6, 24]: 16 mm
COC1CC2C=CC3C4OC2(C(C)=CC(C)C(C(C)O)OC1=O)C3C(O)C(C)C4OC(=O)c1cccn1C (stereo not shown) [U-60,988, 9-O--N--Methylpyrrole-2-carbonyl-] | 24 mm | 125 µg/mL (≈ 236 µM) | – | – | – | – | MIC [2, 18]: > 250 µg/mL; MIC [3, 15]: 250 µg/mL (≈ 472 µM); MIC [5, 19]: 250 µg/mL (≈ 472 µM)
COC1CC2C=CC3C4OC2(C(C)=CC(C)C(C(C)O)OC1=O)C3C(O)C(C)C4OC(=O)c1cccs1 (stereo not shown) [U-60,989, 9-O--Thiophene-2-carbonyl-] | 41 mm | – | 3.9 µg/mL (≈ 7.32 µM) | 3.9 µg/mL (≈ 7.32 µM) | 125 µg/mL (≈ 235 µM) | 3.9 µg/mL (≈ 7.32 µM) | zone of inhibition at 1000 µg/mL [6, 24]: 27 mm
COC1CC2C=CC3C4OC2(C(C)=CC(C)C(C(C)O)OC1=O)C3C(O)C(C)C4OC(=O)c1ccc([N+](=O)[O-])o1 (stereo not shown) [U-60,990, 9-O--5-Nitrofuroyl] | 33 mm | – | 31.2 µg/mL (≈ 55.6 µM) | 31.2 µg/mL (≈ 55.6 µM) | 125 µg/mL (≈ 223 µM) | 62.5 µg/mL (≈ 111 µM) | –
COC1CC2C=CC3C4OC2(C(C)=CC(C)C(C(C)O)OC1=O)C3C(O)C(C)C4OC(=O)c1cnccn1 (stereo not shown) [U-61,264, 9-O--Pyrrazine-2-carbonyl] | 27 mm | – | > 125 µg/mL | > 125 µg/mL | > 125 µg/mL | > 125 µg/mL | –
COC1CC2C=CC3C4OC2(C(C)=CC(C)C(C(C)O)OC1=O)C3C(O)C(C)C4OC(=O)c1ccc(C)[nH]1 (stereo not shown) [U-61,265, 9-O--5-Methylpyrrole-2-carbonyl] | 30 mm | – | 31.2 µg/mL (≈ 58.9 µM) | 31.2 µg/mL (≈ 58.9 µM) | 125 µg/mL (≈ 236 µM) | 31.2 µg/mL (≈ 58.9 µM) | zone of inhibition at 1000 µg/mL [6, 24]: 20 mm
COC1CC2C=CC3C4OC2(C(C)=CC(C)C(C(C)O)OC1=O)C3C(O)C(C)C4OC(=O)c1cc2ccccc2[nH]1 (stereo not shown) [U-61,273, 9-O--Indole-2-carbonyl-] | 22 mm | – | – | – | – | – | insoluble [7]: insoluble
COC1CC2C=CC3C4OC2(C(C)=CC(C)C(C(C)O)OC1=O)C3C(O)C(C)C4OC(=O)c1ccc([N+](=O)[O-])[nH]1 (stereo not shown) [U-61,427, 9-O--5-Nitropyrrole-2-carbonyl-] | 32 mm | 250 µg/mL (≈ 446 µM) | – | – | – | – | MIC [2, 18]: 250 µg/mL (≈ 446 µM); MIC [3, 15]: 125 µg/mL (≈ 223 µM); MIC [5, 19]: 125 µg/mL (≈ 223 µM)
COC1CC2C=CC3C4OC2(C(C)=CC(C)C(C(C)O)OC1=O)C3C(O)C(C)C4OC(=O)c1cc([N+](=O)[O-])c[nH]1 (stereo not shown) [U-61,462, 9-O--4-Nitropyrrole-2-carbonyl-] | 36 mm | 125 µg/mL (≈ 223 µM) | – | – | – | – | MIC [2, 18]: 31.2 µg/mL (≈ 55.7 µM); MIC [3, 15]: 15.6 µg/mL (≈ 27.8 µM); MIC [5, 19]: 31.2 µg/mL (≈ 55.7 µM); zone of inhibition at 1000 µg/mL [6, 17]: 20 mm
COC1CC2C=CC3C4OC2(C(C)=CC(C)C(C(C)O)OC1=O)C3C(O)C(C)C4OC(=O)c1ccc(Br)o1 (stereo not shown) [U-61,463, 9-O--5-Bromofuroyl-] | 35 mm | – | – | – | – | – | zone of inhibition at 1000 µg/mL [6, 24]: 0 mm
